Here are results for 10 compounds from BindingDB's records for doi:10.1021/jm00055a002 (Eli Lilly, 1993).

As a reminder, the IC50 is the concentration that inhibits the measured activity by half. Read a low IC50 as higher potency.

Where a SMILES comes first, the peptide text is derived from it. [ ]: non-standard residue; d: D form. The star is where a group is joined. dHpg = N[C@@H](C(=O)O)c1ccc(O)cc1; Boc = CC(C)(C)OC(=O)*

Assay [1] has as its target Tissue-type plasminogen activator (Homo sapiens) (UniProt P00750). As to the kind of experiment: Inhibitory activity against tissue-type plasminogen activator.
Assay [2] has the same target. As to the kind of experiment: Compound was tested in vitro for inhibitory activity against t-PA (tissue plasminogen activator).

Tissue-type plasminogen activator (Homo sapiens), sequence (P00750 whole entry, looked up): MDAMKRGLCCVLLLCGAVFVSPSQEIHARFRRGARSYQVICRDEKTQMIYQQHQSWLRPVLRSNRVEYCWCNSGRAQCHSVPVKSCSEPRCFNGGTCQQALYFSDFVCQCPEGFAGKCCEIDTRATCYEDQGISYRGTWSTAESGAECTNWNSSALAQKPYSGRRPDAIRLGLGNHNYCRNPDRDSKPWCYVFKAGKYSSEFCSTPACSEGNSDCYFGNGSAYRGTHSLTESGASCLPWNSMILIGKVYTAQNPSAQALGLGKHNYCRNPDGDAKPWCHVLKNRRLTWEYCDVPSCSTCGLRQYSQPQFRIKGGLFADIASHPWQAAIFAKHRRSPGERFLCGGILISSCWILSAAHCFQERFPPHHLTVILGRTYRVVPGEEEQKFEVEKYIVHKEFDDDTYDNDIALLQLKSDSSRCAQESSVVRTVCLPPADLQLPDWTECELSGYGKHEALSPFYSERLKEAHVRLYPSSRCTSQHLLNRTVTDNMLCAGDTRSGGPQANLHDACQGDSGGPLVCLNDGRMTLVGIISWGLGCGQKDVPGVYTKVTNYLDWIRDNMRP

In assay [1], `N=C(N)NCCC[C@@H](C=O)NC(=O)[C@@H]1CCCN1C(=O)C1CCc2ccccc2N1` (stereo not given in full) [1-(1,2,3,4-Tetrahydro-quinoline-2-carbonyl)-pyrrolidine-2-carboxylic acid (1-formyl-4-guanidino-butyl)-amide] gave an IC50 of 660 µM.

With `CC(C)(C)OC(=O)N[C@@H](C(=O)N1CCC[C@H]1C(=O)N[C@H](C=O)CCCN=C(N)N)c1ccc(F)cc1` [{1-(4-Fluoro-phenyl)-2-[2-(1-formyl-4-guanidino-butylcarbamoyl)-pyrrolidin-1-yl]-2-oxo-ethyl}-carbamic acid tert-butyl ester], inhibition in assay [2] was half-maximal at 18 µM (IC50).

`CC(C)(C)OC(=O)NC(C(=O)N1CCC[C@H]1C(=O)NC(C=O)CCCNC(=N)N)c1ccc(Cl)c(Cl)c1` (stereo not given in full) [{1-(3,4-Dichloro-phenyl)-2-[2-(1-formyl-4-guanidino-butylcarbamoyl)-pyrrolidin-1-yl]-2-oxo-ethyl}-carbamic acid tert-butyl ester] had an IC50 in assay [2] of 31 µM.

As to `CC(C)(C)OC(=O)NC(C(=O)N1CCC[C@H]1C(=O)NC(C=O)CCCNC(=N)N)c1cccc(C(F)(F)F)c1` (stereo not given in full) [[2-[2-(1-Formyl-4-guanidino-butylcarbamoyl)-pyrrolidin-1-yl]-2-oxo-1-(3-trifluoromethyl-phenyl)-ethyl]-carbamic acid tert-butyl ester], the IC50 in assay [2] is 15 µM. Compared with the last compound, the IC50 is about 2.1-fold lower.

Compound `CN[C@@H](C(=O)N1CCC[C@H]1C(=O)N[C@H](C=O)CCCNC(=N)N)c1ccccc1` [(S)-1-((R)-2-Methylamino-2-phenyl-acetyl)-pyrrolidine-2-carboxylic acid ((S)-1-formyl-4-guanidino-butyl)-amide] returned an IC50 in assay [2] of 42 µM.

`CC(C)(C)OC(=O)N[C@@H](C(=O)N1CCC[C@H]1C(=O)NC(C=O)CCCNC(=N)N)c1ccc2ccccc2c1` (stereo not given in full) [{2-[2-(1-Formyl-4-guanidino-butylcarbamoyl)-pyrrolidin-1-yl]-1-naphthalen-2-yl-2-oxo-ethyl}-carbamic acid tert-butyl ester] registered an IC50 in assay [2] of 12 µM.

In the case of `CC(C)(C)OC(=O)N[C@@H](C(=O)N1CCC[C@H]1C(=O)NC(C=O)CCCNC(=N)N)c1cccc2ccccc12` (stereo not given in full) [{2-[2-(1-Formyl-4-guanidino-butylcarbamoyl)-pyrrolidin-1-yl]-1-naphthalen-1-yl-2-oxo-ethyl}-carbamic acid tert-butyl ester], the concentration for half-maximal inhibition (IC50) in assay [2] was 20 µM. Compared with the last compound, the IC50 is about 1.7-fold higher.

In assay [1], `CC(C)(C)OC(=O)N[C@@H](C(=O)N1CCC[C@H]1C(=O)N[C@H](C=O)CCCN=C(N)N)c1ccc(O)cc1` [[2-[2-(1-Formyl-4-guanidino-butylcarbamoyl)-pyrrolidin-1-yl]-1-(4-hydroxy-phenyl)-2-oxo-ethyl]-carbamic acid tert-butyl ester] (Boc-[dHpg]-Pro-Arg-aldehyde) yielded an IC50 of 16 µM.

Compound `CO[C@H](C(=O)N1CCC[C@H]1C(=O)NC(C=O)CCCNC(=N)N)c1ccccc1` (stereo not given in full) [1-(2-Methoxy-2-phenyl-acetyl)-pyrrolidine-2-carboxylic acid (1-formyl-4-guanidino-butyl)-amide] registered an IC50 in assay [2] of 860 µM.

With `CC(C)(C)OC(=O)N[C@H](C(=O)N1CCC[C@H]1C(=O)N[C@H](C=O)CCCN=C(N)N)c1ccc(F)cc1` [{1-(4-Fluoro-phenyl)-2-[2-(1-formyl-4-guanidino-butylcarbamoyl)-pyrrolidin-1-yl]-2-oxo-ethyl}-carbamic acid tert-butyl ester], 91 µM corresponded to half-maximal inhibition in assay [2] (IC50). Against the preceding compound, the IC50 is about 9.5-fold lower.
